The values that follow come from patent US20050003367A1, “Methods and compositions for rapid development of screening assays” (priority 2002, published 2005).

“Also recorded” adds a separate entry of the source.

Data set [1] has as its target T1, Vanilloid Receptor-1 (VR1) (Homo sapiens, UniProt Q8NER1).
T1 construct: endogenous in cells; host or cells: HEK-293 clones 5B11 and 5B5
The data set is described as follows: VR1 calcium response assay in HEK-293 clones (VIPRII, 96-well). In kind it is cell-based. Conditions: for IC50: responses to 10 μM capsaicin, capsazepine 0.01-100 μM.

For data set [2] the following is noted: cited from earlier work.
The target of data set [3] is T2, Mineralocorticoid receptor (MR) (Homo sapiens, UniProt P08235).
T2 construct: expressed in transfected cells; host or cells: HEK293 7xUAS-β-lactamase line (HEKUASBLA), clone 1B4. pKI-Gal4-DBD-MR was integrated by homologous recombination
T2 sequence (P08235 726-964 limits assumed): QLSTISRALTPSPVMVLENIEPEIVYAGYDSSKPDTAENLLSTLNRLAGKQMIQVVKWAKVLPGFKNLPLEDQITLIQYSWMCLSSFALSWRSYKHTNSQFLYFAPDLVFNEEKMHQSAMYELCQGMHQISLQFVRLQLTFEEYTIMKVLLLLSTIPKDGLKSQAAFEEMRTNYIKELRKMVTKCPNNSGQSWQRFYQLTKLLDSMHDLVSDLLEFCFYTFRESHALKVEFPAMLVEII
Briefly: MR Gal4-DBD UAS β-lactamase reporter assay, HEK/UAS/GAL4-MR clone 1B4. In kind it is cell-based. Background: A reporter such as luciferase makes a cellular process visible.

For the next data set, the target named is T3, MC4R (Homo sapiens, UniProt P32245).
T3 construct: endogenous in cells; host or cells: HEK 293 P3D8 (4XCRE-β-lactamase reporter) clones, e.g. MC4.49
Briefly: MC4R CRE β-lactamase reporter assay in HEK 293 (P3D8) MC4 cell lines. In kind it is cell-based. Conditions: cells pretreated with the MC4 antagonist. As for the experimental part: (§1) Unless otherwise noted, β-lactamase reporter expression was determined by plating cells into 96 well plates at approx. 10^5 cells/well, and loading with 1 μM CCF2-AM in Hanks' balanced salt solution (HBSS) containing phenol red at 22 ° C. for a period between 1 and 2 h. For visual determination, an epifluorescence microscope (Zeiss 25CFL) equipped with a 10× Fluor objective was used. The filter set contained a 405/20 exciter, a 420 dichroic mirror, and a 435 long-pass filter (Chroma Technologies, Brattleboro Vt.). Fluorescence was then quantified on a Cytofluor 4000 fluorescence plate reader using 395/12.5 nm excitation and emission was detected via 460/50 (blue) and 535/40 (green) band pass filters. Emission intensities from blank wells containing no cells were subtracted from wells containing cells. Calibration of β-lactamase enzyme levels were determined in cell lysates as described by Zlokarnik et al.(1998) Science 279 84-88. Replicate samples of cells were lysed by three cycles of freeze thawing in PBS. β-Lactamase activity in the lysate was measured from the rate of hydrolysis of 1 nmol of CCF2 in 100 μl in a Cytofluor fluorimeter. […]
Three out of the eight characterized MC4 cell lines were chosen for further pharmacological characterization that included a dose response curve with NDP-α-MSH. […] The calculated values were consistent with published data. […]

In a further data set the target is T4, PPARγ (Homo sapiens, UniProt P37231).
T4 construct: expressed in transfected cells; host or cells: HEK293 7xUAS-β-lactamase line (HEKUASBLA), clone 4G5; The targeting vector was integrated by homologous recombination
T4 sequence (P37231 238-503 limits assumed): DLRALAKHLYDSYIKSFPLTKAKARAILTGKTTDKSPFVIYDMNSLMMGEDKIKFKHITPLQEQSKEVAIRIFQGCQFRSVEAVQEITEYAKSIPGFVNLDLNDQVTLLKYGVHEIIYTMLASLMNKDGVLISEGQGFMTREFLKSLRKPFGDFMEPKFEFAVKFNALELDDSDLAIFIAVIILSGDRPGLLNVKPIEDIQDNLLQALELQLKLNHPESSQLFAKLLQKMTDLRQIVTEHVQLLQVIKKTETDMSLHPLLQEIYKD
Briefly: PPARγ Gal4-DBD UAS β-lactamase reporter assay, HEK293 clone 4G5. Conditions: 10 μM or 32 μM BADGE 1 h at 37° C. before rosiglitazone 1 nM-10 μM. In kind it is cell-based. Here is the method:
as §1
Single cells were sorted into 96 well plates and expanded. […] At least 16 h before the assay, cell clones on one copy of the assay plates were stimulated as described above. β-lactamase activity was detected in individual clones as described in Example 6. […]

T1 sequence (Q8NER1 whole entry): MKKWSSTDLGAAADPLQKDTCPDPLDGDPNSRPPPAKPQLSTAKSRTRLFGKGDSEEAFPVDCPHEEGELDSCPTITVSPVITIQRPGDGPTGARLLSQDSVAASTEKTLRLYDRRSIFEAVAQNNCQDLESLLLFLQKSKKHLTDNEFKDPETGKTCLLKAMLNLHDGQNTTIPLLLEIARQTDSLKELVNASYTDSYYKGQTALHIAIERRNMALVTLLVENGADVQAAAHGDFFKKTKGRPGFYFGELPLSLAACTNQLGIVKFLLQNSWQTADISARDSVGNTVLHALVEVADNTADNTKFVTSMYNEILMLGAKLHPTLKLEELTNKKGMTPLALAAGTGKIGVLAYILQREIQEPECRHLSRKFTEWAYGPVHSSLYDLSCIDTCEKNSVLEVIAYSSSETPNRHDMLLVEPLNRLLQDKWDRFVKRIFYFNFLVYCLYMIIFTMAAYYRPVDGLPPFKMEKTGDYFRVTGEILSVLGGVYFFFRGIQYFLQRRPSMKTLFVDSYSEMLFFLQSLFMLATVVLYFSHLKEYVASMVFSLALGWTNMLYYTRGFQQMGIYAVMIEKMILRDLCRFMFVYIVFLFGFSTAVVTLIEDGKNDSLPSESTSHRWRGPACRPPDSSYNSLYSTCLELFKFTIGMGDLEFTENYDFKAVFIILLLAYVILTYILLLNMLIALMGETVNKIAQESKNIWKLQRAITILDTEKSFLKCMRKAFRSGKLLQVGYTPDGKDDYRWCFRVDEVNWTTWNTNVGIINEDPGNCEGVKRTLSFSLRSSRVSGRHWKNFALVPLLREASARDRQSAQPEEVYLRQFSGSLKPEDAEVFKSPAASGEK
T3 sequence (P32245 whole entry): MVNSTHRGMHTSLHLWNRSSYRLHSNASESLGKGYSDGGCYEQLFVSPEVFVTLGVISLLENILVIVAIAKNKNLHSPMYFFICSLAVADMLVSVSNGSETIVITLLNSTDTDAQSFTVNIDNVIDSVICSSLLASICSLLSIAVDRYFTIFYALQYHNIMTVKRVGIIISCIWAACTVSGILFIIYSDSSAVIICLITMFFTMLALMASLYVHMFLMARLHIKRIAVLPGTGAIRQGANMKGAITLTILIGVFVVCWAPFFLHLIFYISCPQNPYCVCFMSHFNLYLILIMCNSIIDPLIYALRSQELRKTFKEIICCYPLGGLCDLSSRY

What is called EC50 is the concentration that produces a half-maximal response. Take `C=C(C)[C@]12C[C@@H](C)[C@@]34O[C@](Cc5ccccc5)(O[C@@H]1[C@@H]3C=C(COC(=O)Cc1ccc(O)c(OC)c1)C[C@]1(O)C(=O)C(C)=C[C@@H]41)O2` [resiniferatoxin]: the EC50 in data set [1] was 427 nM. What is called pKa is the pH at which an ionisable group is half protonated. With SNARF-4F carboxylic acid, the pKa in data set [2] is roughly 6.4. `C[C@]12CCC(=O)C=C1CC[C@@H]1[C@@H]2[C@@H](O)C[C@@]2(C)[C@H]1CC[C@]2(O)C(=O)CO` [Cortisol]: in data set [3], the EC50 turned out to be 4 nM. As for HS024, the “inhibition of the response to α-MSH or NDP-α-MSH” value on MC4R was “inhibited in a concentration-dependant manner”. By IC50 is commonly meant the concentration that gives 50% inhibition. Take `Oc1cc2c(cc1O)CN(C(=S)NCCc1ccc(Cl)cc1)CCC2` [capsazepine]: in data set [1] (50 μM capsazepine, clones 5B11 and 5B5), the “effect on VR1 responses to capsaicin” value is recorded as “failed to respond to any concentration of capsaicin; also recorded: inhibited”. Moreover, the half-inhibitory concentration (IC50) amounted to 7.1 µM in data set [1] (clone 5B5) and 12.8 µM in data set [1] (clone 5B11). For the compound `CC(C)(c1ccc(OCC2CO2)cc1)c1ccc(OCC2CO2)cc1` (centres unmarked) [BADGE], the “inhibition of cell response to rosiglitazone” value on PPARγ was “Inhibition of the cell response to the stimuli”.
